Measurements as given in paper PMC6409085, “Three odorant-binding proteins are involved in the behavioral response of Sogatella furcifera to rice plant volatiles” (PeerJ, 2019).
Values joined by “and” are separate entries in the source; they are usually repeats but may differ in a detail not shown here. Equal entries are not always repeated.

Key:
Experiment in all cases: biochemical
Assay type in all cases: binding
SfurOBP11 = SfurOBP11 (Sogatella furcifera, UniProt V5T6E3)
In short: (§1)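 K1-NPN came from titrating 2.0 µM protein (50 mM Tris-HCl, pH 7.4) with 1-NPN. Odorants at 2-20 µM then competed against 2.0 µM protein plus 2.0 µM 1-NPN for 2 min, with excitation at 337 nm and emission recorded over 390-490 nm. IC50 values were converted to Ki via Ki = IC50/(1 + [1-NPN]/K1-NPN).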

SfurOBP1 = SfurOBP1 (Sogatella furcifera, UniProt V5T8N5); settings: for Fluorescence competitive binding assay, fluorescence intensity: OBP1, three replicate columns
SfurOBP1, sequence (V5T8N5 entry or part of it): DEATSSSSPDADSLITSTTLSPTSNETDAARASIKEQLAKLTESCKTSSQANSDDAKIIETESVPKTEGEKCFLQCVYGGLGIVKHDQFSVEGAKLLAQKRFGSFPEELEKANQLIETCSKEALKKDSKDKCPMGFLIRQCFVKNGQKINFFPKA
In short: as §1

SfurOBP2 = SfurOBP2 (Sogatella furcifera, UniProt V5T759)
SfurOBP2, sequence (V5T759 entry or part of it): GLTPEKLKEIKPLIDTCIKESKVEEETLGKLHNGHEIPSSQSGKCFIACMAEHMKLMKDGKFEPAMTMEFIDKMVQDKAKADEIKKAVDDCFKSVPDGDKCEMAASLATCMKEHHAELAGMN
In short: as §1

SfurOBP3 = SfurOBP3 (Sogatella furcifera, UniProt V5T818); settings: for Fluorescence competitive binding assay, fluorescence intensity: OBP3, three replicate columns
SfurOBP3, sequence (V5T818 entry or part of it): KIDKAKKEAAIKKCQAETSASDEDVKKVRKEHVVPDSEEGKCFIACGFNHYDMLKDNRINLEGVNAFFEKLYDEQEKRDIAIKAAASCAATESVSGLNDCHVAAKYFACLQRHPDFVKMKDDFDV
In short: as §1

SfurOBP11, sequence (V5T6E3 entry or part of it): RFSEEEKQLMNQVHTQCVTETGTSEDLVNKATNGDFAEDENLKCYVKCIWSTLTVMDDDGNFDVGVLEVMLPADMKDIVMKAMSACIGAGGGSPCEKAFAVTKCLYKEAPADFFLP

IC50 (SfurOBP11; SfurOBP11, protein and 1-NPN both 2.0 µM, competitor 2-20 µM, read-out: IC50): > 20 µM
Fluorescence intensity, fluorescence competitive binding assay, OBP11 (SfurOBP11; ligand concentration 2, replicate 1): 31124
Fluorescence intensity, fluorescence competitive binding assay, OBP11 (SfurOBP11; ligand concentration 2, replicate 2): 31165
Fluorescence intensity, fluorescence competitive binding assay, OBP11 (SfurOBP11; ligand concentration 2, replicate 3): 31082
Fluorescence intensity, fluorescence competitive binding assay, OBP11 (SfurOBP11; ligand concentration 4, replicate 1): 31010
Fluorescence intensity, fluorescence competitive binding assay, OBP11 (SfurOBP11; ligand concentration 4, replicate 2): 31130
Fluorescence intensity, fluorescence competitive binding assay, OBP11 (SfurOBP11; ligand concentration 4, replicate 3): 30899
Fluorescence intensity, fluorescence competitive binding assay, OBP11 (SfurOBP11; ligand concentration 6, replicate 1): 26414
Fluorescence intensity, fluorescence competitive binding assay, OBP11 (SfurOBP11; ligand concentration 6, replicate 2): 32905
Fluorescence intensity, fluorescence competitive binding assay, OBP11 (SfurOBP11; ligand concentration 6, replicate 3): 29894
Fluorescence intensity, fluorescence competitive binding assay, OBP11 (SfurOBP11; ligand concentration 8, replicate 1): 27729
Fluorescence intensity, fluorescence competitive binding assay, OBP11 (SfurOBP11; ligand concentration 8, replicate 2): 29971
Fluorescence intensity, fluorescence competitive binding assay, OBP11 (SfurOBP11; ligand concentration 8, replicate 3): 31279
Fluorescence intensity, fluorescence competitive binding assay, OBP11 (SfurOBP11; ligand concentration 10, replicate 1): 29221
Fluorescence intensity, fluorescence competitive binding assay, OBP11 (SfurOBP11; ligand concentration 10, replicate 2): 29436
Fluorescence intensity, fluorescence competitive binding assay, OBP11 (SfurOBP11; ligand concentration 10, replicate 3): 31039
Fluorescence intensity, fluorescence competitive binding assay, OBP11 (SfurOBP11; ligand concentration 12, replicate 1): 26981
Fluorescence intensity, fluorescence competitive binding assay, OBP11 (SfurOBP11; ligand concentration 12, replicate 2): 32241
Fluorescence intensity, fluorescence competitive binding assay, OBP11 (SfurOBP11; ligand concentration 12, replicate 3): 28868
Fluorescence intensity, fluorescence competitive binding assay, OBP11 (SfurOBP11; ligand concentration 14, replicate 1): 27521
Fluorescence intensity, fluorescence competitive binding assay, OBP11 (SfurOBP11; ligand concentration 14, replicate 2): 30203
Fluorescence intensity, fluorescence competitive binding assay, OBP11 (SfurOBP11; ligand concentration 14, replicate 3): 30415
Fluorescence intensity, fluorescence competitive binding assay, OBP11 (SfurOBP11; ligand concentration 16, replicate 1): 28709
Fluorescence intensity, fluorescence competitive binding assay, OBP11 (SfurOBP11; ligand concentration 16, replicate 2): 28254
Fluorescence intensity, fluorescence competitive binding assay, OBP11 (SfurOBP11; ligand concentration 16, replicate 3): 29164
Fluorescence intensity, fluorescence competitive binding assay, OBP11 (SfurOBP11; ligand concentration 18, replicate 1): 29699
Fluorescence intensity, fluorescence competitive binding assay, OBP11 (SfurOBP11; ligand concentration 18, replicate 2): 28164
Fluorescence intensity, fluorescence competitive binding assay, OBP11 (SfurOBP11; ligand concentration 18, replicate 3): 26628
Fluorescence intensity, fluorescence competitive binding assay, OBP11 (SfurOBP11; ligand concentration 20, replicate 1): 26046
Fluorescence intensity, fluorescence competitive binding assay, OBP11 (SfurOBP11; ligand concentration 20, replicate 2): 24149
Fluorescence intensity, fluorescence competitive binding assay, OBP11 (SfurOBP11; ligand concentration 20, replicate 3): 23426
Fluorescence competitive binding assay, fluorescence intensity (SfurOBP1; ligand concentration 2 (μM)): 9199 and 7453 and 7122
Fluorescence competitive binding assay, fluorescence intensity (SfurOBP1; ligand concentration 4 (μM)): 8077 and 8108 and 9442
Fluorescence competitive binding assay, fluorescence intensity (SfurOBP1; ligand concentration 6 (μM)): 8157 and 9511 and 12800
Fluorescence competitive binding assay, fluorescence intensity (SfurOBP1; ligand concentration 8 (μM)): 8086 and 8235 and 10013
Fluorescence competitive binding assay, fluorescence intensity (SfurOBP1; ligand concentration 10 (μM)): 9302 and 9657 and 9738
Fluorescence competitive binding assay, fluorescence intensity (SfurOBP1; ligand concentration 12 (μM)): 8567 and 10513 and 8676
Fluorescence competitive binding assay, fluorescence intensity (SfurOBP1; ligand concentration 14 (μM)): 10345 and 9766 and 9261
Fluorescence competitive binding assay, fluorescence intensity (SfurOBP1; ligand concentration 16 (μM)): 9156 and 9816 and 8326
Fluorescence competitive binding assay, fluorescence intensity (SfurOBP1; ligand concentration 18 (μM)): 11251 and 11486 and 11859
Fluorescence competitive binding assay, fluorescence intensity (SfurOBP1; ligand concentration 20 (μM)): 12749 and 11193 and 9024
IC50 (SfurOBP1; SfurOBP1, protein and 1-NPN both 2.0 µM, competitor 2-20 µM, read-out: IC50): > 20 µM
IC50 (SfurOBP2; SfurOBP2, protein and 1-NPN both 2.0 µM, competitor 2-20 µM, read-out: IC50): > 20 µM
Fluorescence competitive binding assay, OBP2 (raw fluorescence reading) (SfurOBP2; ligand concentration 2 (unit not given), replicate column 1 of 3): 22088
Fluorescence competitive binding assay, OBP2 (raw fluorescence reading) (SfurOBP2; ligand concentration 2 (unit not given), replicate column 2 of 3): 18683
Fluorescence competitive binding assay, OBP2 (raw fluorescence reading) (SfurOBP2; ligand concentration 2 (unit not given), replicate column 3 of 3): 19796
Fluorescence competitive binding assay, OBP2 (raw fluorescence reading) (SfurOBP2; ligand concentration 4 (unit not given), replicate column 1 of 3): 22227
Fluorescence competitive binding assay, OBP2 (raw fluorescence reading) (SfurOBP2; ligand concentration 4 (unit not given), replicate column 2 of 3): 21034
Fluorescence competitive binding assay, OBP2 (raw fluorescence reading) (SfurOBP2; ligand concentration 4 (unit not given), replicate column 3 of 3): 22529
Fluorescence competitive binding assay, OBP2 (raw fluorescence reading) (SfurOBP2; ligand concentration 6 (unit not given), replicate column 1 of 3): 22620
Fluorescence competitive binding assay, OBP2 (raw fluorescence reading) (SfurOBP2; ligand concentration 6 (unit not given), replicate column 2 of 3): 20809
Fluorescence competitive binding assay, OBP2 (raw fluorescence reading) (SfurOBP2; ligand concentration 6 (unit not given), replicate column 3 of 3): 24859
Fluorescence competitive binding assay, OBP2 (raw fluorescence reading) (SfurOBP2; ligand concentration 8 (unit not given), replicate column 1 of 3): 22235
Fluorescence competitive binding assay, OBP2 (raw fluorescence reading) (SfurOBP2; ligand concentration 8 (unit not given), replicate column 2 of 3): 21135
Fluorescence competitive binding assay, OBP2 (raw fluorescence reading) (SfurOBP2; ligand concentration 8 (unit not given), replicate column 3 of 3): 22654
Fluorescence competitive binding assay, OBP2 (raw fluorescence reading) (SfurOBP2; ligand concentration 10 (unit not given), replicate column 1 of 3): 23550
Fluorescence competitive binding assay, OBP2 (raw fluorescence reading) (SfurOBP2; ligand concentration 10 (unit not given), replicate column 2 of 3): 22474
Fluorescence competitive binding assay, OBP2 (raw fluorescence reading) (SfurOBP2; ligand concentration 10 (unit not given), replicate column 3 of 3): 20461
Fluorescence competitive binding assay, OBP2 (raw fluorescence reading) (SfurOBP2; ligand concentration 12 (unit not given), replicate column 1 of 3): 24276
Fluorescence competitive binding assay, OBP2 (raw fluorescence reading) (SfurOBP2; ligand concentration 12 (unit not given), replicate column 2 of 3): 21111
Fluorescence competitive binding assay, OBP2 (raw fluorescence reading) (SfurOBP2; ligand concentration 12 (unit not given), replicate column 3 of 3): 21373
Fluorescence competitive binding assay, OBP2 (raw fluorescence reading) (SfurOBP2; ligand concentration 14 (unit not given), replicate column 1 of 3): 23028
Fluorescence competitive binding assay, OBP2 (raw fluorescence reading) (SfurOBP2; ligand concentration 14 (unit not given), replicate column 2 of 3): 21327
Fluorescence competitive binding assay, OBP2 (raw fluorescence reading) (SfurOBP2; ligand concentration 14 (unit not given), replicate column 3 of 3): 21239
Fluorescence competitive binding assay, OBP2 (raw fluorescence reading) (SfurOBP2; ligand concentration 16 (unit not given), replicate column 1 of 3): 18660
Fluorescence competitive binding assay, OBP2 (raw fluorescence reading) (SfurOBP2; ligand concentration 16 (unit not given), replicate column 2 of 3): 19708
Fluorescence competitive binding assay, OBP2 (raw fluorescence reading) (SfurOBP2; ligand concentration 16 (unit not given), replicate column 3 of 3): 19350
Fluorescence competitive binding assay, OBP2 (raw fluorescence reading) (SfurOBP2; ligand concentration 18 (unit not given), replicate column 1 of 3): 24040
Fluorescence competitive binding assay, OBP2 (raw fluorescence reading) (SfurOBP2; ligand concentration 18 (unit not given), replicate column 2 of 3): 25474
Fluorescence competitive binding assay, OBP2 (raw fluorescence reading) (SfurOBP2; ligand concentration 18 (unit not given), replicate column 3 of 3): 26650
Fluorescence competitive binding assay, OBP2 (raw fluorescence reading) (SfurOBP2; ligand concentration 20 (unit not given), replicate column 1 of 3): 24631
Fluorescence competitive binding assay, OBP2 (raw fluorescence reading) (SfurOBP2; ligand concentration 20 (unit not given), replicate column 2 of 3): 21130
Fluorescence competitive binding assay, OBP2 (raw fluorescence reading) (SfurOBP2; ligand concentration 20 (unit not given), replicate column 3 of 3): 21384
Fluorescence competitive binding assay, fluorescence intensity (SfurOBP3; ligand concentration 2): 44756 and 46756 and 45756
Fluorescence competitive binding assay, fluorescence intensity (SfurOBP3; ligand concentration 4): 44765 and 44970 and 45189
Fluorescence competitive binding assay, fluorescence intensity (SfurOBP3; ligand concentration 6): 56655 and 51780 and 54218
Fluorescence competitive binding assay, fluorescence intensity (SfurOBP3; ligand concentration 8): 56206 and 55200 and 54212
Fluorescence competitive binding assay, fluorescence intensity (SfurOBP3; ligand concentration 10): 105189 and 108079 and 109909
Fluorescence competitive binding assay, fluorescence intensity (SfurOBP3; ligand concentration 12): 109051 and 110510 and 104814
Fluorescence competitive binding assay, fluorescence intensity (SfurOBP3; ligand concentration 14): 104242 and 103301 and 109995
Fluorescence competitive binding assay, fluorescence intensity (SfurOBP3; ligand concentration 16): 96286 and 114978 and 85581
Fluorescence competitive binding assay, fluorescence intensity (SfurOBP3; ligand concentration 18): 113407 and 123942 and 62401
Fluorescence competitive binding assay, fluorescence intensity (SfurOBP3; ligand concentration 20): 54560 and 56227 and 56504
IC50 (SfurOBP3; SfurOBP3, protein and 1-NPN both 2.0 µM, competitor 2-20 µM, read-out: IC50): > 20 µM
Structure (SMILES): CCCCCCCCCCCCCCCCCC [n-octadecane]
